What was measured:
Type in all cases: in vivo
[1] = test system: goosegrass (Eleusine indica); test: Test B pre-/postemergence plant response; details: Preemergence
Text: (§1) Seeds of plant species selected from blackgrass (Alopecurus myosuroides), downy bromegrass (Bromus tectorum), green foxtail (Setaria viridis), Italian ryegrass (Lolium multiflorum), wheat (Triticum aestivum), wild oat (Avena fatua), catchweed bedstraw (Galium aparine), bermudagrass (Cynodon dactylon), surinam grass (Brachiaria decumbens), cocklebur (Xanthium strumarium), corn (Zea mays), large crabgrass (Digitaria sanguinalis), woolly cupgrass (Eriochloa villosa), giant foxtail (Setaria faberii), goosegrass (Eleusine indica), johnsongrass (Sorghum halepense), kochia (Kochia scoparia), lambsquarters (Chenopodium album), morningglory (Ipomoea coccinea), eastern black (E.B.) nightshade (Solanum ptycanthum), yellow nutsedge (Cyperus esculentus), pigweed (Amaranthus retroflexus), common ragweed (Ambrosia elation), Russian thistle (Salsola iberica), soybean (Glycine max), common (oilseed) sunflower (Helianthus annuus), and velvetleaf (Abutilon theophrasti) were planted and treated preemergence with test chemicals formulated in a non-phytotoxic solvent mixture which included a surfactant.
(§2) At the same time, plants selected from these crop and weed species and also winter barley (Hordeum vulgare), canarygrass (Phalaris minor), chickweed (Stellaria media) and windgrass (Apera spica-venti) were treated with postemergence applications of some of the test chemicals formulated in the same manner. Plants ranged in height from 2 to 18 cm (1- to 4-leaf stage) for postemergence treatments.
(§3) Plant species in the flooded paddy test consisted of rice (Oryza sativa), umbrella sedge (Cyperus difformis), ducksalad (Heteranthera limosa) and barnyardgrass (Echinochloa crus-galli) grown to the 2-leaf stage for testing. At time of treatment, test pots were flooded to 3 cm above the soil surface, treated by application of test compounds directly to the paddy water, and then maintained at that water depth for the duration of the test. Treated plants and controls were maintained in a greenhouse for 13 to 15 days, after which time all species were compared to controls and visually evaluated. Plant response ratings, summarized in Table B, are based on a scale of 0 to 100 where 0 is no effect and 100 is complete control. A dash (-) response means no test result.

[2] = test system: woolly cupgrass (Eriochloa villosa); test: Test B pre-/postemergence plant response; details: Preemergence
Text: as §1, §2, §3

[3] = test system: yellow nutsedge (Cyperus esculentus); test: Test B pre-/postemergence plant response; details: Preemergence
Text: as §1, §2, §3

[4] = test system: cocklebur (Xanthium strumarium); test: Test B pre-/postemergence plant response; details: Preemergence
Text: as §1, §2, §3

[5] = test system: pigweed (Amaranthus retroflexus); test: Test B pre-/postemergence plant response; details: Preemergence
Text: as §1, §2, §3

kochia (Kochia scoparia) = test: Test B pre-/postemergence plant response; details: Preemergence
Text: as §1, §2, §3

[6] = test system: common ragweed (Ambrosia elation); test: Test B pre-/postemergence plant response; details: Preemergence
Text: as §1, §2, §3

soybean (Glycine max) = test: Test B pre-/postemergence plant response; details: Preemergence
Text: as §1, §2, §3

[7] = test system: eastern black (E.B.) nightshade (Solanum ptycanthum); test: Test B pre-/postemergence plant response; details: Preemergence
Text: as §1, §2, §3

[8] = test system: Italian ryegrass (Lolium multiflorum); test: Test B pre-/postemergence plant response; details: Preemergence
Text: as §1, §2, §3

[9] = test system: wheat (Triticum aestivum); test: Test A pre-/postemergence plant response; details: 1000 g ai/ha
Outline: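 Seeds in loam soil/sand blend treated preemergence by directed soil spray, with simultaneous postemergence spray on 2–10 cm plants at one- to two-leaf stage; compounds in non-phytotoxic solvent with surfactant. Injury visually rated versus untreated controls after about 10 days in greenhouse, 0 (no effect) to 100 (complete control).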

[10] = 31 g ai/ha, 0 to 100 scale, 0 no effect, 100 complete control

Cc1cc(-c2ccc(C(F)(F)F)cc2)nn1-c1c(OC(=O)C(C)(C)C)cnn(C)c1=O [Compound 2]
Plant response rating, Goosegrass [1, 10]: 50
Plant response rating, Goosegrass ([1]; 62 g ai/ha, scale 0 to 100): 60
Plant response rating, Goosegrass ([1]; 125 g ai/ha, scale 0 to 100): 95
Plant response rating, Goosegrass ([1]; 250 g ai/ha, scale 0 to 100): 95
Plant response rating, Cupgrass, Woolly [2, 10]: 70
Plant response rating, Cupgrass, Woolly ([2]; 62 g ai/ha, scale 0 to 100): 80
Plant response rating, Cupgrass, Woolly ([2]; 125 g ai/ha, scale 0 to 100): 80
Plant response rating, Cupgrass, Woolly ([2]; 250 g ai/ha, scale 0 to 100): 100
Plant response rating, Nutsedge, Yellow [3, 10]: 0
Plant response rating, Nutsedge, Yellow ([3]; 62 g ai/ha, scale 0 to 100): 0
Plant response rating, Nutsedge, Yellow ([3]; 125 g ai/ha, scale 0 to 100): 0
Plant response rating, Nutsedge, Yellow ([3]; 250 g ai/ha, scale 0 to 100): 0
Plant response rating, Cocklebur [4, 10]: 0
Plant response rating, Cocklebur ([4]; 62 g ai/ha, scale 0 to 100): 0
Plant response rating, Cocklebur ([4]; 125 g ai/ha, scale 0 to 100): 0
Plant response rating, Cocklebur ([4]; 250 g ai/ha, scale 0 to 100): 0
Plant response rating, Pigweed [5, 10]: 0
Plant response rating, Pigweed ([5]; 62 g ai/ha, scale 0 to 100): 0
Plant response rating, Pigweed ([5]; 125 g ai/ha, scale 0 to 100): 70
Plant response rating, Pigweed ([5]; 250 g ai/ha, scale 0 to 100): 70
Plant response rating, Kochia (kochia (Kochia scoparia); [10]): 0
Plant response rating, Kochia (kochia (Kochia scoparia); 62 g ai/ha, scale 0 to 100): 0
Plant response rating, Kochia (kochia (Kochia scoparia); 125 g ai/ha, scale 0 to 100): 0
Plant response rating, Kochia (kochia (Kochia scoparia); 250 g ai/ha, scale 0 to 100): 50
Plant response rating, Ragweed [6, 10]: 0
Plant response rating, Ragweed ([6]; 62 g ai/ha, scale 0 to 100): 0
Plant response rating, Ragweed ([6]; 125 g ai/ha, scale 0 to 100): 0
Plant response rating, Ragweed ([6]; 250 g ai/ha, scale 0 to 100): 0
Plant response rating, Soybean (soybean (Glycine max); [10]): 0
Plant response rating, Soybean (soybean (Glycine max); 62 g ai/ha, scale 0 to 100): 0
Plant response rating, Soybean (soybean (Glycine max); 125 g ai/ha, scale 0 to 100): 0
Plant response rating, Soybean (soybean (Glycine max); 250 g ai/ha, scale 0 to 100): 0
Plant response rating, Nightshade, E. B. [7, 10]: 0
Plant response rating, Nightshade, E. B. ([7]; 62 g ai/ha, scale 0 to 100): 0
Plant response rating, Nightshade, E. B. ([7]; 125 g ai/ha, scale 0 to 100): 0
Plant response rating, Nightshade, E. B. ([7]; 250 g ai/ha, scale 0 to 100): 0
Plant response rating, Ryegrass, Italian [8, 10]: 75
Plant response rating, Ryegrass, Italian ([8]; 62 g ai/ha, scale 0 to 100): 100
Plant response rating, Ryegrass, Italian ([8]; 125 g ai/ha, scale 0 to 100): 100
Plant response rating, Ryegrass, Italian ([8]; 250 g ai/ha, scale 0 to 100): 100
Plant response rating, Wheat ([9]; Postemergence, 0 to 100 scale, 0 no effect, 100 complete control): 90
Plant response rating, Wheat ([9]; Preemergence, 0 to 100 scale (0 no effect, 100 complete control)): 90

From patent US20100267561A1, “HERBICIDAL PYRIDAZINONE DERIVATIVES” (priority 2007, published 2010)
